# Source: patent publication US8895610B1, “Platinum (IV) compounds targeting zinc finger domains” (priority 2007, dated 2014)
# Where “and” joins values, the source holds several entries; their conditions need not be identical. Equal entries are not always repeated.
# Key:
# [1] = test system: HIV-Infected Human Monocyte-Derived Macrophages; test: Reverse transcription rates in HIV-infected monocyte-derived macrophages; type: cell-based; details: 1 to 10 uM; vs untreated and mock-infected MDM
# Description: Primary human monocyte-derived macrophages (MDM) were prepared by culturing elutriated monocytes in RPMI-1640 medium, supplemented with 10% fetal bovine serum for 5 to 7 days on ultra-low attachment plates. MDMs were detached from the plates and plated onto tissue culture dishes or microscope culture chambers. MDMs in 6-well plates were infected with WT pNL(AD8) virus stocks and 2×10^6 reverse transcriptase cpm/well. Various incubated concentrations of platinum(IV) compound ranging from 1 to 10 uM were compared with untreated (no drug) and mock-infected MDM reverse transcription rates (counts per minute/microliter). Medium in the MDM cultures was changed every two days and an aliquot was reserved for reverse transcriptase (RT) activity at each time point (Gousset, 2008). […] This activity parallels that observed by Mark-Danieli et al. (2005) by certain zinc finger mutations of the nucleocapsid protein; other investigators have reported decreases or no changes in transcription rates with various mutations (Ramboarina, 2004; Houzet, 2008). […] Increasing the efficiency of reverse transcription initiation is detrimental to viral replication (Thomas and Gorelick, 2008). One role of nucleocapsid proteins is regulation of the transcription cadence in virally-infected cells.
# [2] = test system: HIV-1-transfected HeLa host cells (pNL4-3); test: Virus release in HIV-transfected HeLa cells (radiolabel, immunoprecipitation); type: cell-based, human; details: vs untreated transfected HeLa cells
# Excerpt: Briefly, HeLa cells were transfected (calcium phosphate method) with the full-length, infectious HIV-1 molecular clone pNL4-3 to examine single-cycle particle production (Freed, 1994). Transfected cells were metabolically radiolabeled, and cell- and virus-associated proteins were immunoprecipitated and quantified as previously described (Waheed and Freed, 2008). Virus release efficiency was reduced in a concentration-dependent manner with FX101 as compared with untreated controls.
# [3] = test system: IL-13; test: Feline blood serum immunofluorescent bead analysis: IL-13; type: in vivo, cat; details: cats BR, CF
# Description: Test sera samples from select felines were analyzed using the Rules-Based Medicine (Austin, Tex.) human multi-analyte for 90 measures from a single sample of less than 0.5 mL. The assay uses immunofluorescent beads to simultaneously measure antibody recognition to individually identifiable colored beads, each conjugated with a specific antibody, within a single well plate. Blood samples were drawn preceding (pretreatment) and following (post treatment) one-month FX101 treatment (from felines in Example 6), and are compared with two uninfected control felines. Human cross-reactive antibodies are commonly used for felines, and are relative rather than quantitative measures. Reductions in TNF-alpha and MMP-2 are evident in treated cats; TIMP-1 (Tissue Inhibitor of Metalloproteinases) is not associated with the downregulation of MMP-2. Both MMP-2 and MMP-9, as well as MCP-1, are considered important contributors to the penetration of virally-infected cells across the BBB (Webster, 2006). Additional comments follow the table.
compound,measurement,setting,value
"[NH2][Pt]([NH2])([Cl])([Cl])([Cl])[N+](=O)[O-] [FX101, nitrotrichlorodiamminoPt(IV)]",reverse transcription rate,[1],"do not inhibit reverse transcription in this system, but rather increase this rate"
same,p24 Gag proteins,[2],greatly reduced
same,HIV-1 virus release efficiency,[2]; concentration-dependent,greatly reduced
same,"IL-13, relative blood serum measure",[3]; post treatment (one-month FX101 treatment),27 pg/mL and 34 pg/mL
same,"IL-13, relative blood serum measure",[3]; pretreatment,15 pg/mL and 12 pg/mL
